Test systems include 786-0 renal; EKVX NSCLC; IGROV1 ovarian; NCI-H23 lung; SF-295 CNS; SNB-19 CNS; A549 NSCLC; ACHN renal; NCI-H226 lung; SN12C renal.
Test in all cases: DTP human tumour cell line panel, 48 h

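Test compounds were applied to cells in 96-well plates for 48 hours at 5 doses. Abbreviation: GI50, concentration required for 50% inhibition of growth. TGI is the concentration that stops growth completely.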

The term GI50 denotes the concentration at which growth is held to half of that of the control. A word on the TGI: it is the concentration at which net growth stops. On to `CCCCN1C(=O)/C(=c2\sc3n(c2=O)C2C(NN=3)N(CC)C(=O)N2CC)c2ccccc21` (stereo not drawn), for which the GI50 in the experiment on 786-0 renal was 1140 nM; in the experiment with EKVX NSCLC it was 1380 nM; with IGROV1 ovarian, 764 nM; in the experiment with NCI-H23 lung, 1770 nM; with SF-295 CNS it was 456 nM; in the experiment on SNB-19 CNS it was 1610 nM. Besides, the TGI was 4.18 µM with 786-0 renal; more than 100 µM in the experiment with EKVX NSCLC; 3.6 µM in the experiment on IGROV1 ovarian; more than 35 µM in the experiment with NCI-H23 lung; 2.26 µM in the experiment with SF-295 CNS; 28.1 µM with SNB-19 CNS.

For the compound `CC(C)(C)c1nc(-c2cccc(NS(=O)(=O)c3c(F)cccc3F)c2F)c(-c2ccnc(N)n2)s1`, the GI50 with 786-0 renal is 48900 nM; in the experiment with A549 NSCLC it was 26.1 µM; with ACHN renal, 211 nM; with IGROV1 ovarian, 56100 nM; in the experiment on NCI-H226 lung it was 32.9 µM; in the experiment on NCI-H23 lung it was 10300 nM. The figures for the GI50 in the experiment with SF-295 CNS, in the experiment with SN12C renal and with SNB-19 CNS were 55600 nM, 17700 nM and 71500 nM, respectively. Further, the TGI with 786-0 renal is more than 100 µM; in the experiment on A549 NSCLC it was more than 100 µM; in the experiment on ACHN renal, more than 100 µM; in the experiment with IGROV1 ovarian, more than 100 µM; with NCI-H226 lung, more than 100 µM; in the experiment on NCI-H23 lung, 98.6 µM. For the same compound, the TGI in the experiment with SF-295 CNS, in the experiment with SN12C renal and with SNB-19 CNS was more than 100 µM throughout.

Consider `COc1cc2nc(-c3cccc4cccnc34)nc(NC3CCN(Cc4ccccc4)CC3)c2cc1OC`, for which the GI50 with 786-0 renal was 1200 nM; in the experiment on A549 NSCLC it was 0.56 µM; with ACHN renal, 773 nM; with EKVX NSCLC it was 1480 nM; with IGROV1 ovarian, 930 nM; with NCI-H23 lung, 1370 nM. The GI50 was 1440 nM with SF-295 CNS, 1110 nM in the experiment on SN12C renal and 1340 nM in the experiment with SNB-19 CNS. The TGI in the experiment on 786-0 renal is 2.69 µM; with A549 NSCLC, 1.94 µM; in the experiment with ACHN renal, 2.08 µM; with EKVX NSCLC it was 3.3 µM; in the experiment on IGROV1 ovarian it was 2.31 µM; in the experiment with NCI-H23 lung it was 3.11 µM. The TGI in the experiment with SF-295 CNS came out at 3.09 µM; in the experiment on SN12C renal, 2.58 µM; with SNB-19 CNS it was 3.16 µM.

With `Nc1ccc(-c2ccc3ncc4ccc(=O)n(-c5cccc(C(F)(F)F)c5)c4c3c2)cn1`, the GI50 in the experiment on 786-0 renal is less than 10 nM; in the experiment with A549 NSCLC it was less than 0.01 µM; with ACHN renal, less than 10 nM; in the experiment on IGROV1 ovarian it was less than 10 nM; in the experiment with NCI-H226 lung it was less than 0.01 µM; with NCI-H23 lung, less than 13 nM. Also, the GI50 was less than 10 nM in the experiment on SF-295 CNS, less than 13.1 nM in the experiment with SN12C renal and less than 13 nM in the experiment with SNB-19 CNS. In addition, the TGI with 786-0 renal was 0.423 µM; in the experiment on A549 NSCLC, 2.6 µM; in the experiment on IGROV1 ovarian, 0.314 µM; with NCI-H226 lung, 4.7 µM; with NCI-H23 lung, 2.35 µM; in the experiment on SF-295 CNS, 1.19 µM. Also, the values for the TGI in the experiment on SN12C renal and with SNB-19 CNS were more than 52.2 µM and 52.3 µM, respectively.

As for `O=C([CH-]C(=O)c1ccccc1)c1ccccc1.O=C([CH-]C(=O)c1ccccc1)c1ccccc1.O=C([CH-]C(=O)c1ccccc1)c1ccccc1.[Cl-].[Zr+4]`, the GI50 in the experiment on 786-0 renal is 18600 nM; in the experiment with A549 NSCLC it was 33.9 µM; with ACHN renal, 22000 nM; in the experiment with EKVX NSCLC it was 4030 nM; in the experiment on IGROV1 ovarian, 34300 nM; in the experiment with NCI-H23 lung, 16900 nM. Further, the GI50 was 12800 nM in the experiment with SF-295 CNS and 35900 nM in the experiment on SN12C renal. For the same compound, the TGI in the experiment on 786-0 renal is 70.3 µM; in the experiment on A549 NSCLC, more than 100 µM; with ACHN renal it was more than 100 µM; in the experiment with EKVX NSCLC it was 26.8 µM; in the experiment with IGROV1 ovarian, more than 100 µM; in the experiment on NCI-H23 lung, 99.7 µM. In addition, the TGI with SF-295 CNS and with SN12C renal was more than 100 µM throughout.

As to `CC12OC(C(=O)C13CCC3)C1C(=O)c3ccc4c(ccc5ccccc54)c3C(=O)C12` (stereo not drawn), the GI50 in the experiment with 786-0 renal is 3650 nM; in the experiment on A549 NSCLC, 19.5 µM; in the experiment with ACHN renal, 6780 nM; with EKVX NSCLC, 20700 nM; with IGROV1 ovarian, 21400 nM; in the experiment on NCI-H23 lung, 10500 nM. Moreover, the GI50 is 2720 nM in the experiment with SN12C renal and 21500 nM in the experiment with SNB-19 CNS. In addition, the concentration for total growth inhibition (TGI) was 8.82 µM in the experiment with 786-0 renal; more than 100 µM in the experiment with A549 NSCLC; 21.4 µM in the experiment with ACHN renal; 63.7 µM in the experiment on EKVX NSCLC; more than 100 µM with IGROV1 ovarian; 23.6 µM with NCI-H23 lung. Besides, the TGI is 0.0612 µM in the experiment with SF-295 CNS, 19.6 µM with SN12C renal and 65.7 µM with SNB-19 CNS.

On to `O=C(/C=C\n1cnc(-c2cc(C(F)(F)F)cc(C(F)(F)F)c2)n1)N1CC(F)(F)C1`, for which the concentration for 50% growth inhibition (GI50) in the experiment with 786-0 renal is 387 nM; in the experiment on A549 NSCLC it was 0.559 µM; with ACHN renal, 1300 nM; in the experiment on EKVX NSCLC, 953 nM; in the experiment on IGROV1 ovarian, 978 nM; with NCI-H23 lung it was 391 nM. In addition, the GI50 with SF-295 CNS is 336 nM; in the experiment with SN12C renal, 1190 nM; in the experiment with SNB-19 CNS, 273 nM. For the same compound, the TGI is 6.12 µM in the experiment with 786-0 renal; more than 25 µM in the experiment on A549 NSCLC; more than 25 µM in the experiment on ACHN renal; 14.6 µM in the experiment with EKVX NSCLC; 8.59 µM in the experiment on IGROV1 ovarian; 5.61 µM in the experiment with NCI-H23 lung. In addition, the TGI in the experiment with SF-295 CNS was more than 17 µM; with SN12C renal, more than 25 µM; with SNB-19 CNS, more than 25 µM.

Take `c1cc[c]([Sn]([O]c2cccc3cccnc23)([O]c2cccc3cccnc23)[c]2ccccc2)cc1`: the GI50 with 786-0 renal is 570 nM; in the experiment on ACHN renal, 207 nM; in the experiment on EKVX NSCLC it was 1430 nM; in the experiment on IGROV1 ovarian it was 1550 nM; with NCI-H23 lung, 209 nM; in the experiment with SF-295 CNS it was 1720 nM. In the experiment with SN12C renal, the GI50 was 481 nM. In addition, the concentration for total growth inhibition (TGI) was 4.74 µM with 786-0 renal; 0.396 µM in the experiment on ACHN renal; 3.07 µM in the experiment with EKVX NSCLC; 3.06 µM in the experiment on IGROV1 ovarian; 0.5 µM in the experiment on NCI-H23 lung; 3.22 µM in the experiment with SF-295 CNS. Moreover, in the experiment on SN12C renal, the concentration for total growth inhibition (TGI) was 1.64 µM.

On to `CCOC(=O)C1=C(C(=O)OCC)C2(c3ccccc3)N(O1)c1ccccc1C2(C)C` (stereo not drawn), for which the total growth inhibition concentration (TGI) in the experiment with 786-0 renal, in the experiment on A549 NSCLC, in the experiment with EKVX NSCLC, in the experiment with IGROV1 ovarian, in the experiment with NCI-H226 lung and with NCI-H23 lung was more than 100 µM throughout. The TGI with SF-295 CNS and in the experiment on SNB-19 CNS was more than 100 µM each time.

The values above are taken from PubChem BioAssay (NCI).
